# Reference: patent publication US20190150455A1, “COMPOSITIONS OF SAPONINS AND PLANT EXTRACTS” (Y&B MOTHER'S CHOICE LTD., priority 2016, published 2019)
# System: E. coli, S. aureus, P. aeruginosa, C. albicans and A. Brasiliensis
# Experiment: Challenge test, statements on all tested microorganisms together
# Format: cell-based
# Details: non-preserved cream
# Protocol: The various lotion or cleansing formulae were contaminated by suitable microorganisms (bacteria and yeast), as described below. The so-prepared samples were incubated as described below. Using serial dilutions and plate counts, aliquots were taken during the incubation period for determining microorganism count. Tested Microorganisms: E. coli (ATCC 8739); S. aureus (ATCC 6538); P. aeruginosa (ATCC 9027); C. albicans (ATCC 10231) and A. Brasiliensis (ATCC 16404)). Bacteria, yeast, and mold suspensions were prepared according to ISO 11930; TSA culture medium for the bacteria was obtained from Hylab (Cat. No PD-087/A); PDA culture medium for A. brasiliensis was obtained from Hylab (Cat. No PD-043); SDA culture medium for C. albicans was obtained from Hylab (Cat. No PD-044); 0.1% peptone was prepared by mixing 1 g/l Peptone in sterile water. The test was performed according ISO 11930. Each sample was contaminated with microorganisms to obtain the range of 10^5-10^6 cfulml. The inoculated formulation was mixed thoroughly to ensure a homogeneous distribution of the inoculum. Samples were stored at 25° C. Each sample was sampled in intervals of 2, 7, 14, 21 and 28 days, according to the following procedure: 100 μl of the inoculated formulation was streaked on suitable agar medium. The plates were incubated at 37° C. for bacteria and 25° C. for yeast and mold. […]
compound,measurement,value
CCCCCCCC(=O)OCC(O)CO (stereo not shown) [glyceryl caprylate],"Antimicrobial activity against the tested microorganisms, in words",improved the antimicrobial activity of the tested formulations
